Measurements from PubChem BioAssay AID1963426 (Molecular Pharmacology Branch, DTP, NCI, 2024).

System: 186277-243-T-J2-PDC complex spheroid growth, % test/control
Assay: Anticancer human tumor 186277-243-T-J2-PDC patient-derived colon adenocarcinoma cell line growth inhibition [Asc]
Conditions: for IC50: curve of first compound; for viability, T/C: stronger effect = lower value
Summary of the method: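 Stromal components (HUVEC and hMSC) are co-assembled with the cancer cells into multicellular spheroids. Drugs are then added singly or paired, at concentrations falling by half-log increments from a clinically achievable maximum, capped at 10 microM without known Cmax.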

[1] = second compound 0.03 µM, first compound 0.0316 µM
[2] = second compound 0.03 µM, first compound 0.1 µM
[3] = second compound 0.03 µM, first compound 0.316 µM
[4] = second compound 0.03 µM, first compound 1 µM
[5] = second compound 0.03 µM, first compound 3.16 µM
[6] = second compound 0.03 µM, first compound 10 µM
[7] = second compound 0.0949 µM, first compound 0.0316 µM
[8] = second compound 0.0949 µM, first compound 0.1 µM
[9] = second compound 0.0949 µM, first compound 0.316 µM
[10] = second compound 0.0949 µM, first compound 1 µM
[11] = second compound 0.0949 µM, first compound 3.16 µM
[12] = second compound 0.0949 µM, first compound 10 µM
[13] = second compound 0.3 µM, first compound 0.0316 µM
[14] = second compound 0.3 µM, first compound 0.1 µM
[15] = second compound 0.3 µM, first compound 0.316 µM
[16] = second compound 0.3 µM, first compound 1 µM
[17] = second compound 0.3 µM, first compound 3.16 µM
[18] = second compound 0.3 µM, first compound 10 µM
[19] = second compound 0.949 µM, first compound 0.0316 µM
[20] = second compound 0.949 µM, first compound 0.1 µM
[21] = second compound 0.949 µM, first compound 0.316 µM
[22] = second compound 0.949 µM, first compound 1 µM
[23] = second compound 0.949 µM, first compound 3.16 µM
[24] = second compound 0.949 µM, first compound 10 µM
[25] = second compound 3 µM, first compound 0.0316 µM
[26] = second compound 3 µM, first compound 0.1 µM
[27] = second compound 3 µM, first compound 0.316 µM
[28] = second compound 3 µM, first compound 1 µM
[29] = second compound 3 µM, first compound 3.16 µM
[30] = second compound 3 µM, first compound 10 µM
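Also: spheroids exposed to agents for 7 days.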
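For viability, T/C in this document: 100% = DMSO vehicle control wells.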

Compound | IC50 (second compound 0.03 µM) [µM] | IC50 (second compound 0.0949 µM) [µM] | IC50 (second compound 0.3 µM) [µM] | IC50 (second compound 0.949 µM) [µM] | IC50 (second compound 3 µM) [µM] | viability, T/C [1] [%] | viability, T/C [2] [%] | viability, T/C [3] [%] | viability, T/C [4] [%] | viability, T/C [5] [%] | viability, T/C [6] [%] | viability, T/C [7] [%] | viability, T/C [8] [%] | viability, T/C [9] [%] | viability, T/C [10] [%] | viability, T/C [11] [%] | viability, T/C [12] [%] | viability, T/C [13] [%] | viability, T/C [14] [%] | viability, T/C [15] [%] | other results
C#Cc1c(F)ccc2cc(O)cc(-c3ncc4c(N5CC6CCC(C5)N6)nc(OCC56CCCN5CC(F)C6)nc4c3F)c12 (stereo not given) + CCN1C(C(=O)NC23CCC(C(=O)O)(CC2)CC3)C(c2cccc(Cl)c2F)C2(C(=O)Nc3cc(Cl)ccc32)C12CCCCC2 | 0.119 | 0.0354 | < 0.0316 | < 0.0316 | < 0.0316 | 57.1 | 55.3 | 24.1 | 7.49 | 4.76 | 2.76 | 52.6 | 26.3 | 7.13 | 3.79 | 2.21 | 2.17 | 27.4 | 8.1 | 3.14 | viability, T/C [16]: 2.06%; viability, T/C [17]: 1.62%; viability, T/C [18]: 1.41%; viability, T/C [19]: 16.2%; viability, T/C [20]: 5.72%; viability, T/C [21]: 2.81%; viability, T/C [22]: 2.32%; viability, T/C [23]: 1.53%; viability, T/C [24]: 1.08%; viability, T/C [25]: 7.02%; viability, T/C [26]: 3.62%; viability, T/C [27]: 2.69%; viability, T/C [28]: 2.2%; viability, T/C [29]: 1.71%; viability, T/C [30]: 1.33%
C=C(F)C(=O)N1CCN(c2nc(OCC3CCCN3C)nc3c2CCN(c2cccc4cccc(Cl)c24)C3)CC1CC#N (stereo not given) + CCN1C(C(=O)NC23CCC(C(=O)O)(CC2)CC3)C(c2cccc(Cl)c2F)C2(C(=O)Nc3cc(Cl)ccc32)C12CCCCC2 | 4.75 | 4.63 | 4 | 1.61 | < 0.0316 | 123 | 107 | 109 | 99.8 | 79.5 | 0.44 | 92.7 | 92.5 | 103 | 88.6 | 75.2 | 0.22 | 76.3 | 82.5 | 86.1 | viability, T/C [16]: 73.2%; viability, T/C [17]: 63.7%; viability, T/C [18]: 0.17%; viability, T/C [19]: 58.2%; viability, T/C [20]: 57.5%; viability, T/C [21]: 61.4%; viability, T/C [22]: 64%; viability, T/C [23]: 35.6%; viability, T/C [24]: 0.22%; viability, T/C [25]: 38.4%; viability, T/C [26]: 37.3%; viability, T/C [27]: 38.8%; viability, T/C [28]: 37%; viability, T/C [29]: 23.6%; viability, T/C [30]: 0.69%
